Reference: PubChem BioAssay (NCI)
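In this assay, cells in 96-well plates receive the compound at five concentrations for 48 hours. Endpoints are linearly interpolated between the surrounding concentrations. GI50 = concentration required for 50% inhibition of growth. The concentration for full growth arrest is given as TGI.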

What was measured:
Assay in all cases: inhibition of tumour cell growth, NCI panel, 48 h
786-0 renal = test system: 786-0 renal
A549 NSCLC = test system: A549 NSCLC
ACHN renal = test system: ACHN renal
BT-549 breast = test system: BT-549 breast
CAKI-1 renal = test system: CAKI-1 renal
CCRF-CEM leukemia = test system: CCRF-CEM leukemia
COLO 205 colon = test system: COLO 205 colon
DU-145 prostate = test system: DU-145 prostate
EKVX NSCLC = test system: EKVX NSCLC
HCC-2998 colon = test system: HCC-2998 colon
HCT-116 colon = test system: HCT-116 colon
HCT-15 colon = test system: HCT-15 colon
HL-60(TB) leukemia = test system: HL-60(TB) leukemia
HOP-62 NSCLC = test system: HOP-62 NSCLC
HOP-92 NSCLC = test system: HOP-92 NSCLC
HS 578T breast = test system: HS 578T breast
HT29 colon = test system: HT29 colon
IGROV1 ovarian = test system: IGROV1 ovarian
K-562 leukemia = test system: K-562 leukemia
LOX IMVI melanoma = test system: LOX IMVI melanoma
M14 melanoma = test system: M14 melanoma
MALME-3M melanoma = test system: MALME-3M melanoma
MCF7 breast = test system: MCF7 breast
MDA-MB-231 breast = test system: MDA-MB-231 breast
MDA-MB-435 = test system: MDA-MB-435
MOLT-4 leukemia = test system: MOLT-4 leukemia
NCI-H226 lung = test system: NCI-H226 lung
NCI-H23 lung = test system: NCI-H23 lung
NCI-H460 lung = test system: NCI-H460 lung
NCI-H522 lung = test system: NCI-H522 lung
NCI/ADR-RES ovarian = test system: NCI/ADR-RES ovarian
OVCAR-3 ovarian = test system: OVCAR-3 ovarian
OVCAR-4 ovarian = test system: OVCAR-4 ovarian
OVCAR-5 ovarian = test system: OVCAR-5 ovarian
OVCAR-8 ovarian = test system: OVCAR-8 ovarian
PC-3 prostate = test system: PC-3 prostate
RPMI-8226 leukemia = test system: RPMI-8226 leukemia
RXF 393 renal = test system: RXF 393 renal
SF-268 CNS = test system: SF-268 CNS
SF-295 CNS = test system: SF-295 CNS
SF-539 CNS = test system: SF-539 CNS
SK-MEL-2 melanoma = test system: SK-MEL-2 melanoma
SK-MEL-28 melanoma = test system: SK-MEL-28 melanoma
SK-MEL-5 melanoma = test system: SK-MEL-5 melanoma
SK-OV-3 ovarian = test system: SK-OV-3 ovarian
SN12C renal = test system: SN12C renal
SNB-19 CNS = test system: SNB-19 CNS
SNB-75 CNS = test system: SNB-75 CNS
SR leukemia = test system: SR leukemia
SW-620 colon = test system: SW-620 colon
T-47D breast = test system: T-47D breast
TK-10 renal = test system: TK-10 renal
UACC-257 melanoma = test system: UACC-257 melanoma
UO-31 renal = test system: UO-31 renal
A498 renal = test system: A498 renal
KM12 colon = test system: KM12 colon
U251 CNS = test system: U251 CNS
UACC-62 melanoma = test system: UACC-62 melanoma

SMILES: CC(=O)N1C(Nc2ccccc2)CCN1c1ccccc1 (stereo not drawn)
- TGI (786-0 renal): > 10 µM
- TGI (A549 NSCLC): > 10 µM
- TGI (ACHN renal): > 10 µM
- TGI (BT-549 breast): > 10 µM
- TGI (CAKI-1 renal): > 10 µM
- TGI (CCRF-CEM leukemia): > 10 µM
- TGI (COLO 205 colon): > 10 µM
- TGI (DU-145 prostate): > 10 µM
- TGI (EKVX NSCLC): > 10 µM
- TGI (HCC-2998 colon): > 10 µM
- TGI (HCT-116 colon): > 10 µM
- TGI (HCT-15 colon): > 10 µM
- TGI (HL-60(TB) leukemia): > 10 µM
- TGI (HOP-62 NSCLC): > 10 µM
- TGI (HOP-92 NSCLC): > 10 µM
- TGI (HS 578T breast): > 10 µM
- TGI (HT29 colon): > 10 µM
- TGI (IGROV1 ovarian): > 10 µM
- TGI (K-562 leukemia): > 10 µM
- TGI (LOX IMVI melanoma): > 10 µM
- TGI (M14 melanoma): > 10 µM
- TGI (MALME-3M melanoma): > 10 µM
- TGI (MCF7 breast): > 10 µM
- TGI (MDA-MB-231 breast): > 10 µM
- TGI (MDA-MB-435): > 10 µM
- TGI (MOLT-4 leukemia): > 10 µM
- TGI (NCI-H226 lung): > 10 µM
- TGI (NCI-H23 lung): > 10 µM
- TGI (NCI-H460 lung): > 10 µM
- TGI (NCI-H522 lung): > 10 µM
- TGI (NCI/ADR-RES ovarian): > 10 µM
- TGI (OVCAR-3 ovarian): > 10 µM
- TGI (OVCAR-4 ovarian): > 10 µM
- TGI (OVCAR-5 ovarian): > 10 µM
- TGI (OVCAR-8 ovarian): > 10 µM
- TGI (PC-3 prostate): > 10 µM
- TGI (RPMI-8226 leukemia): > 10 µM
- TGI (RXF 393 renal): > 10 µM
- TGI (SF-268 CNS): > 10 µM
- TGI (SF-295 CNS): > 10 µM
- TGI (SF-539 CNS): > 10 µM
- TGI (SK-MEL-2 melanoma): > 10 µM
- TGI (SK-MEL-28 melanoma): > 10 µM
- TGI (SK-MEL-5 melanoma): > 10 µM
- TGI (SK-OV-3 ovarian): > 10 µM
- TGI (SN12C renal): > 10 µM
- TGI (SNB-19 CNS): > 10 µM
- TGI (SNB-75 CNS): > 10 µM
- TGI (SR leukemia): > 10 µM
- TGI (SW-620 colon): > 10 µM
- TGI (T-47D breast): > 10 µM
- TGI (TK-10 renal): > 10 µM
- TGI (UACC-257 melanoma): > 10 µM
- TGI (UO-31 renal): > 10 µM

SMILES: O=C1/C(=C\c2ccc(Cl)cc2)CCOc2c1ccc1ccccc21
- GI50 (786-0 renal): 24 µM
- TGI (786-0 renal): 55.7 µM
- GI50 (A498 renal): 36.4 µM
- TGI (A498 renal): 61.8 µM
- GI50 (A549 NSCLC): 42.8 µM
- TGI (A549 NSCLC): > 100 µM
- GI50 (ACHN renal): 20.4 µM
- TGI (ACHN renal): 42.9 µM
- GI50 (BT-549 breast): 18.8 µM
- TGI (BT-549 breast): 47 µM
- GI50 (CAKI-1 renal): 31.7 µM
- TGI (CAKI-1 renal): 66 µM
- GI50 (CCRF-CEM leukemia): 28.8 µM
- TGI (CCRF-CEM leukemia): > 100 µM
- GI50 (COLO 205 colon): 22 µM
- TGI (COLO 205 colon): 50.1 µM
- GI50 (DU-145 prostate): 19.7 µM
- TGI (DU-145 prostate): 61.7 µM
- GI50 (EKVX NSCLC): 16.7 µM
- TGI (EKVX NSCLC): 47.6 µM
- GI50 (HCT-116 colon): 35 µM
- TGI (HCT-116 colon): > 100 µM
- GI50 (HCT-15 colon): 14.9 µM
- TGI (HCT-15 colon): 62.4 µM
- GI50 (HL-60(TB) leukemia): 46.4 µM
- TGI (HL-60(TB) leukemia): > 100 µM
- GI50 (HOP-62 NSCLC): 25.8 µM
- TGI (HOP-62 NSCLC): 63.6 µM
- GI50 (HOP-92 NSCLC): 17.8 µM
- TGI (HOP-92 NSCLC): 63.4 µM
- GI50 (HS 578T breast): 46.5 µM
- TGI (HS 578T breast): > 100 µM
- GI50 (HT29 colon): 22.6 µM
- TGI (HT29 colon): 72 µM
- GI50 (IGROV1 ovarian): 55.3 µM
- TGI (IGROV1 ovarian): > 100 µM
- GI50 (K-562 leukemia): 22.5 µM
- TGI (K-562 leukemia): > 100 µM
- GI50 (KM12 colon): 31.8 µM
- TGI (KM12 colon): > 100 µM
- GI50 (LOX IMVI melanoma): 18.6 µM
- TGI (LOX IMVI melanoma): 42.3 µM
- GI50 (M14 melanoma): 36.3 µM
- TGI (M14 melanoma): > 100 µM
- GI50 (MALME-3M melanoma): 25.9 µM
- TGI (MALME-3M melanoma): 57.9 µM
- GI50 (MCF7 breast): 19.4 µM
- TGI (MCF7 breast): > 100 µM
- GI50 (MDA-MB-231 breast): 18.6 µM
- TGI (MDA-MB-231 breast): 57 µM
- GI50 (MDA-MB-435): 23.2 µM
- TGI (MDA-MB-435): > 100 µM
- GI50 (MOLT-4 leukemia): 11.7 µM
- TGI (MOLT-4 leukemia): > 100 µM
- GI50 (NCI-H226 lung): 11.2 µM
- TGI (NCI-H226 lung): 27.1 µM
- GI50 (NCI-H23 lung): 21.6 µM
- TGI (NCI-H23 lung): 56.7 µM
- GI50 (NCI-H460 lung): 21.4 µM
- TGI (NCI-H460 lung): 76.4 µM
- GI50 (NCI-H522 lung): 30.1 µM
- TGI (NCI-H522 lung): > 100 µM
- GI50 (NCI/ADR-RES ovarian): 19.6 µM
- TGI (NCI/ADR-RES ovarian): 62.8 µM
- GI50 (OVCAR-3 ovarian): 39.4 µM
- TGI (OVCAR-3 ovarian): 87.6 µM
- GI50 (OVCAR-4 ovarian): 36.7 µM
- TGI (OVCAR-4 ovarian): > 100 µM
- GI50 (OVCAR-5 ovarian): 26.1 µM
- TGI (OVCAR-5 ovarian): 78.8 µM
- GI50 (OVCAR-8 ovarian): 28.1 µM
- TGI (OVCAR-8 ovarian): > 100 µM
- GI50 (PC-3 prostate): 43.5 µM
- TGI (PC-3 prostate): > 100 µM
- GI50 (RPMI-8226 leukemia): 14 µM
- TGI (RPMI-8226 leukemia): 55.5 µM
- GI50 (RXF 393 renal): 22.4 µM
- TGI (RXF 393 renal): 63.6 µM
- GI50 (SF-268 CNS): 24.2 µM
- TGI (SF-268 CNS): 83.9 µM
- GI50 (SF-295 CNS): 33.5 µM
- TGI (SF-295 CNS): > 100 µM
- GI50 (SF-539 CNS): 12.2 µM
- TGI (SF-539 CNS): 29.9 µM
- GI50 (SK-MEL-2 melanoma): 87.5 µM
- TGI (SK-MEL-2 melanoma): > 100 µM
- GI50 (SK-MEL-28 melanoma): 19 µM
- TGI (SK-MEL-28 melanoma): 38.2 µM
- GI50 (SK-MEL-5 melanoma): 20.6 µM
- TGI (SK-MEL-5 melanoma): 45.8 µM
- GI50 (SK-OV-3 ovarian): 42.6 µM
- TGI (SK-OV-3 ovarian): > 100 µM
- GI50 (SN12C renal): 18.5 µM
- TGI (SN12C renal): 49.6 µM
- GI50 (SNB-19 CNS): 23.9 µM
- TGI (SNB-19 CNS): 72.3 µM
- GI50 (SNB-75 CNS): 34.6 µM
- TGI (SNB-75 CNS): > 100 µM
- GI50 (SR leukemia): 11.9 µM
- TGI (SR leukemia): > 100 µM
- GI50 (SW-620 colon): 38.5 µM
- TGI (SW-620 colon): > 100 µM
- GI50 (T-47D breast): 19 µM
- TGI (T-47D breast): 42.2 µM
- GI50 (TK-10 renal): 27.6 µM
- TGI (TK-10 renal): 72.3 µM
- GI50 (U251 CNS): 20.3 µM
- TGI (U251 CNS): 58.6 µM
- GI50 (UACC-257 melanoma): 29.8 µM
- TGI (UACC-257 melanoma): 83.3 µM
- GI50 (UACC-62 melanoma): 18.7 µM
- TGI (UACC-62 melanoma): 47 µM
- GI50 (UO-31 renal): 35.4 µM
- TGI (UO-31 renal): > 100 µM
